The source of these data is patent US5481013A, “Carboxylic acid derivatives” (Ciba-Geigy Corporation, priority 1992, dated 1996).

Format in all cases: in vivo
One assay concerns Bemisia tabaci. In words: Activity against Bemisia tabaci. The following applies: 336 h, 400 ppm spray on dwarf bean plants with nymphs, evaluated 14 days after application, read-out: activity (hatching percentages vs untreated control). The procedure:
Dwarf bean plants are placed into gauze cages and populated with adult Bemisia tabaci specimens (white fly). After oviposition has taken place, all adults are removed and, 10 days later, the plants with the nymphs located thereon are treated with a spray mixture of the active ingredients to be tested (concentration 400 ppm), which has been prepared with an aqueous emulsion. The test is evaluated for hatching percentages 14 days after the active ingredient has been applied by comparison with the untreated control batches. […] An activity of over 80% is shown, in particular, by compound Nos. 1.01, 2.01 to 2.08, 2.10 to 2.16, 2.22, 2.23, 3.01, 4.01, 4.02, 4.05, 4.06, 5.02, 5.03, 5.06 to 5.08, 5.10, 5.11, 5.20, 5.21 and 6.09.

Assay [1] deals with Panonychus ulmi (OP- and carb.- resistant). In words: Activity against Panonychus ulmi (OP- and carb.- resistant). The conditions noted are these: 336 h, 400 ppm spray on apple seedlings, evaluated after 14 days, read-out: percentage reduction in population (% activity). The procedure:
Apple seedlings are populated with adult females of Panonychus ulmi. After seven days, the infested plants are sprayed to drip point with an aqueous emulsion comprising 400 ppm of the test compound and grown in the greenhouse. The test is evaluated after 14 days. The percentage reduction in population (% activity) is determined by comparing the number of dead spider mites on the treated plants with those on the untreated plants. […] An activity of over 80% is shown, in particular, by compound Nos. 1.01, 2.01, 2.07, 2.08, 2.10, 2.12 to 2.16, 2.22, 2.23, 2.26, 3.01, 4.01, 4.02, 4.06, 5.01 to 5.03, 5.05, 5.06, 5.08, 5.10, 5.11, 5.15, 5.16 and 5.20 to 5.25.

A further assay deals with adult Anthonomus grandis. In words: Activity against adult Anthonomus grandis. The following applies: 72 h, 400 ppm spray on young cotton plants, adults, evaluated after 3 days, read-out: percentage reduction in population or in feeding damage (% activity). The procedure:
Young cotton plants are sprayed with a spray mixture prepared with an aqueous emulsion and comprising 400 ppm of the active ingredient. After the spray coating has dried on, the cotton plants are populated with 10 adult Anthonomus grandis and placed into a plastic container. The test is evaluated after 3 days. The percentage reduction in population, or the percentage reduction in feeding damage (% activity), is determined by comparing the number of dead beetles and the feeding damage on the treated plants with those on the untreated plants.

Another assay relates to Nephotettix cincticeps. The experiment in a line: Activity against Nephotettix cincticeps (spray on rice plants). The conditions noted are these: 504 h, 400 ppm spray on rice plants, larvae in stages 2 and 3, evaluated 21 days later, read-out: percentage reduction in population (% activity). The procedure:
Rice plants are treated with a spray mixture prepared with an aqueous emulsion and comprising 400 ppm of the active ingredient. After the spray coating has dried on, the rice plants are populated with leaf hopper larvae in stages 2 and 3. The test is evaluated 21 days later. The percentage reduction in population (% activity) is determined by comparing the number of surviving leaf hoppers on the treated plants with those on the untreated plants.

For another assay, the system named is Heliothis virescens. The experiment in a line: Ovicidal/larvicidal activity on Heliothis virescens. The following applies: 192 h, 400 ppm spray on eggs deposited on cotton, evaluated after 8 days, read-out: % reduction in population (hatching percentage of eggs and survival rate of caterpillars). The procedure:
Heliothis eggs which have been deposited on cotton are sprayed with a spray mixture prepared with an aqueous emulsion and comprising 400 ppm of the active ingredient. After 8 days, the hatching percentage of the eggs and the survival rate of the caterpillars are evaluated by comparing them with untreated control batches (% reduction in population).

Assay [2] has as its system Nilaparvata lugens. In words: Systemic activity against Nilaparvata lugens. The conditions noted are these: 144 h, pots with rice plants in 400 ppm aqueous emulsion solution, larvae in stages 2 and 3, evaluated 6 days later, read-out: percentage reduction in population (% activity). The procedure: Pots containing rice plants are placed into an aqueous emulsion solution comprising 400 ppm of the active ingredient. The rice plants are subsequently populated with larvae in stages 2 and 3. The test is evaluated 6 days later. The percentage reduction in population (% activity) is determined by comparing the numbers of plant hoppers on the treated plants with those on the untreated plants.

Assay [3] deals with Nilaparvata lugens. The experiment in a line: Activity against Nilaparvata lugens (spray on rice plants). The conditions noted are these: 504 h, 400 ppm spray on rice plants, larvae in stages 2 and 3, evaluated after 21 days, read-out: percentage reduction in population (% activity). The procedure: Rice plants are treated with a spray mixture prepared with an aqueous emulsion and comprising 400 ppm of the active ingredient. After the spray coating has dried on, the rice plants are populated with plant hopper larvae in stages 2 and 3. The test is evaluated after 21 days. The percentage reduction in population (% activity) is determined by comparing the number of surviving plant hoppers on the treated plants with the number of plant hoppers on the untreated plants. […] An activity of over 80% is shown, in particular, by compound Nos. 1.01, 2.01 to 2.03, 2.07, 2.08, 2.10 to 2.16, 2.20, 2.22, 2.23, 2.26, 3.01, 4.01 to 4.06, 4.20, 5.01 to 5.06, 5.08, 5.10 to 5.12, 5.15, 5.16 and 5.20 to 5.25.

Assay [4] relates to Heliothis virescens caterpillars. The experiment in a line: Activity against Heliothis virescens caterpillars. The following applies: 144 h, 400 ppm spray on young soybean plants, first larval stage, evaluated after 6 days, read-out: percentage reduction in population or in feeding damage (% activity). The procedure:
Young soybean plants are sprayed with a spray mixture prepared with an aqueous emulsion and comprising 400 ppm of the active ingredient. After the spray coating has dried on, the soybean plants are populated with 10 Heliothis virescens in the first larval stage and placed into a plastic container. The test is evaluated after 6 days. The percentage reduction in population, or the percentage reduction in feeding damage (% activity), is determined by comparing the number of dead caterpillars and the feeding damage on the treated plants with those on the untreated plants.

A further assay has as its system Tetranychus urticae. In words: Activity against Tetranychus urticae. The conditions noted are these: 144 h, 400 ppm spray on young bean plants, mixed population, 6 days at 25° C, read-out: percentage reduction in population (% activity). The procedure: Young bean plants are populated with a mixed population of Tetranychus urticae and, after 1 day, sprayed with a spray mixture prepared with an aqueous emulsion and comprising 400 ppm of the active ingredient. The plants are subsequently incubated for 6 days at 25° C and then evaluated. The percentage reduction in population (% activity) is determined by comparing the number of dead eggs, larvae and adults on the treated plants with those on the untreated ones.

For a further assay, the system named is Dermanyssus gallinae. In words: Activity against Dermanyssus gallinae. The conditions noted are these: 72 h, 10 ppm solution, mites in different development stages, after 3 days. The procedure:
2 to 3 ml of a solution comprising 10 ppm of active ingredient and approximately 200 mites in different development stages are placed into a glass container which is open at the top. The container is then sealed with a cottonwool ball, shaken for 10 minutes until the mites are wetted completely, and then briefly turned over so that the remaining test solution can be absorbed by the cottonwool. After 3 days, the mortality of the mites is determined by counting the dead individuals; it is given as a percentage.

The next assay concerns Ctenocephalides felis. In words: Activity against Ctenocephalides felis. The conditions noted are these: 504 h, 100 ppm in flea larvae nutrient medium, flea eggs, checked after 21 days. The procedure: 20 to 25 flea eggs are placed into a horizontally positioned 50 ml tissue culture flask into which 15 g of flea larvae nutrient medium comprising 100 ppm of the active ingredient to be tested have previously been introduced. The test flasks are incubated in an incubator at 26° to 27° C. and an atmospheric humidity of 60-70%. After 21 days, the flasks are checked for the presence of adult fleas, unhatched pupae and larvae.

SMILES strings stand for the structures. Some results are limits rather than exact numbers.

The term mortality denotes the share of the test organisms that died. A low value points to a weak lethal effect.

In the case of `N#Cc1ccc(COc2ccc(OCCOC(=O)CCCCCCCCCC=C(F)F)cc2)cc1` [Compound 5.10], in the assay with Bemisia tabaci, the pest or weed control at 400 ppm is more than 80%. Further, the activity at 400 ppm (in assay [1]; in the assay with adult Anthonomus grandis) was more than 80% throughout.

As for `O=C(CCCC=C(F)F)OCCOc1ccc(Oc2ccccn2)cc1` [Compound 2.03], the activity at 400 ppm with Nephotettix cincticeps is more than 80%.

For `O=C(CCCCCCCC=C(F)F)NCCOc1ccc(Oc2ccccc2)cc1` [Compound 4.20], in the assay on Heliothis virescens, the pest or weed control at 400 ppm was more than 80%. Besides, the activity at 400 ppm (in the assay on Nilaparvata lugens [2]; with Nilaparvata lugens [3]; in [4]; with Tetranychus urticae) was more than 80% each time.

With `O=C(CCCC=C(F)F)OCCOc1ccc(Oc2ccccc2)cc1` [Compound 2.01], the activity at 400 ppm (with Nephotettix cincticeps; in assay [1]) was more than 80% each time.

In the case of `CC(CCCCCCCCCC(=O)OCCOc1ccc(Oc2ccccc2)cc1)=C(F)Cl` [Compound 6.09], the pest or weed control at 400 ppm with Bemisia tabaci and in the assay with Heliothis virescens was more than 80% in each case.

Take `O=C(CCCCCCCCCC=C(F)F)OCCOc1ccc(OCc2cccc([N+](=O)[O-])c2)cc1` [Compound 5.15]: the activity at 400 ppm (in the assay with Nephotettix cincticeps; in assay [1]; in the assay with Nilaparvata lugens [2]; with Nilaparvata lugens [3]; in assay [4]; in the assay with Tetranychus urticae) was more than 80% in each case. In the assay on Heliothis virescens, the pest or weed control at 400 ppm is more than 80%.

Consider `N#Cc1ccc(COc2ccc(OCCOC(=O)CCCC=C(F)F)cc2)cc1` [Compound 2.10], for which the activity at 400 ppm (in assay [1]; in the assay with Tetranychus urticae) was more than 80% throughout.

In the case of `CC(COC(=O)CCCC=C(F)F)Oc1ccc(Oc2ccccc2)cc1` (stereo not shown) [Compound 2.06], the mortality at 10 ppm with Dermanyssus gallinae is more than 80%. In addition, the activity at 400 ppm with Nephotettix cincticeps is more than 80%.

For `O=C(CCCCCCCCCC=C(F)F)OCCOc1ccc(OCc2ncc(C(F)(F)F)cc2Cl)cc1` [Compound 5.22], the activity at 400 ppm in the assay with Nephotettix cincticeps was more than 80%.

As for `O=C(CCCCCCCCCC=C(F)F)OCCOc1ccc(Oc2ccccn2)cc1` [Compound 5.03], in the assay on Bemisia tabaci, the pest or weed control at 400 ppm is more than 80%.

`O=C(CCCCCCCC=C(F)F)OCCOc1ccc(OCc2ccccc2)cc1` [Compound 4.05]: the pest or weed control at 400 ppm in the assay with Bemisia tabaci is more than 80%. In the assay on Dermanyssus gallinae, this compound came in with a mortality at 10 ppm of more than 80%. Moreover, the activity at 400 ppm (in the assay on Nephotettix cincticeps; in assay [4]) was more than 80% throughout.

Consider `O=C(CCCC=C(F)F)OCCOc1ccc(OCc2cccc([N+](=O)[O-])c2)cc1` [Compound 2.15], for which the pest or weed control at 400 ppm in the assay on Heliothis virescens was more than 80%.

For the compound `Cc1ccc(COc2ccc(OCCOC(=O)CCCC=C(F)F)cc2)cc1C` [Compound 2.16], the pest or weed control at 400 ppm in the assay on Heliothis virescens was more than 80%.

In the case of `Cc1ccc(COc2ccc(OCCOC(=O)CCCCCCCCCC=C(F)F)cc2)cc1C` [Compound 5.16], the activity at 400 ppm (in the assay on Nephotettix cincticeps; in [1]; with Nilaparvata lugens [2]; in the assay on Nilaparvata lugens [3]; in the assay on adult Anthonomus grandis; in [4]) was more than 80% throughout. Further, in the assay with Tetranychus urticae, the activity at 400 ppm is more than 80%. For the same compound, the pest or weed control at 400 ppm in the assay on Heliothis virescens is more than 80%.

Compound `CC(OC(=O)CCCC=C(F)F)C(C)Oc1ccc(Oc2ccccc2)cc1` (stereo not shown) [Compound 2.13] came in with a mortality at 10 ppm with Dermanyssus gallinae of more than 80%.

Regarding `Cc1ccc(COc2ccc(OCCOC(=O)CCCCCCCCCC=C(F)F)cc2)cc1` [Compound 5.11], the pest or weed control at 400 ppm in the assay on Bemisia tabaci was more than 80%. Also, in [1], the activity at 400 ppm was more than 80%.

On to `CC(COC(=O)CCCCCCCCCC=C(F)F)Oc1ccc(Oc2ccccc2)cc1` (stereo not shown) [Compound 5.06], for which, in assay [1], the activity at 400 ppm is more than 80%.

As for `CC(COC(=O)CCCCCCCCCC=C(F)F)Oc1ccc(Sc2ccccc2)cc1` (stereo not shown) [Compound 5.25], the activity at 400 ppm (in the assay with Nephotettix cincticeps; in [4]) was more than 80% in each case.

Turning to `O=C(CCCC=C(F)F)OCCOc1ccc(OCc2ccc(F)cc2)cc1` [Compound 2.07], the activity at 400 ppm (with Nephotettix cincticeps; in assay [1]; with Nilaparvata lugens [3]; in the assay with adult Anthonomus grandis) was more than 80% each time.

As for `O=C(CCCC=C(F)F)NCCOc1ccc(Oc2ccccc2)cc1` [Compound 2.20], the activity at 400 ppm in the assay on Nilaparvata lugens [2] and with Nilaparvata lugens [3] was more than 80% each time.

Regarding `O=C(CCCCCCCC=C(F)F)OCCOc1ccc(Oc2ccccn2)cc1` [Compound 4.03], the pest or weed control at 100 ppm in the assay on Ctenocephalides felis was more than 80%.

As for `O=C(CCCCCCCCCC=C(F)F)OCCOc1ccc(OCc2cccc(Cl)c2)cc1` [Compound 5.20], the pest or weed control at 400 ppm with Bemisia tabaci was more than 80%. Also, the activity at 400 ppm in the assay with Nephotettix cincticeps is more than 80%.

Regarding `O=C(CCCC=C(F)F)OCCOc1ccc(Sc2ccccc2)cc1` [Compound 2.02], in the assay with Nephotettix cincticeps, the activity at 400 ppm is more than 80%.

In the case of `O=C(CCCC=C(F)F)OCCOc1ccc(OCc2ccc(Cl)cc2)cc1` [Compound 2.08], the activity at 400 ppm (in assay [1]; in the assay on Nilaparvata lugens [3]; in the assay on adult Anthonomus grandis) was more than 80% each time.

Regarding `O=C(CCCCCCCCCC=C(F)F)NCCOc1ccc(OCc2ccc(C(F)(F)F)cn2)cc1` [Compound 5.21], in the assay with Bemisia tabaci, the pest or weed control at 400 ppm was more than 80%. The mortality at 10 ppm in the assay with Dermanyssus gallinae was more than 80%.
